Data published in patent US9914718B2, “Anhydrous crystalline form of S-equol” (Ausio Pharmaceuticals, LLC, priority 2014, dated 2018).

Experiment: Long-term stability testing at room temperature storage conditions
Type: physicochemical
Method: Stability testing: To access its ability to maintain a desired chemical integrity, the stability of anhydrous crystalline polymorph of S-equol was evaluated for a period representative of the shelf-life of a pharmaceutical formulation. Anhydrous crystalline polymorph of S-equol was maintained at room temperature storage conditions, and evaluated for purity and water content.

Appearance (0 days): white to brown
Purity (0 days): 100% HPLC area %
Water Content (0 days): <0.1 g/100 g
Appearance (626 days): white to brown
Purity (626 days): 100% HPLC area %
Water Content (626 days): 0.05 g/100 g
Appearance (867 days): white to brown
Purity (867 days): 100% HPLC area %
Water Content (867 days): 0.05 g/100 g
SMILES: Oc1ccc([C@H]2COc3cc(O)ccc3C2)cc1 [anhydrous crystalline S-equol, S-equol]
